Results: ChEMBL document CHEMBL4118134, “Design, synthesis, and evaluation of novel N-1 fluoroquinolone derivatives: Probing for binding contact with the active site tyrosine of gyrase” (Bioorg Med Chem Lett, 2018)
pIC50: −log10 of the molar value. Activity calls are given as the source filed them. The calls are words filed in the database; no cut-off is given here.

What was measured:
[1] = molecular target: T1, DNA gyrase (Escherichia coli) (UniProt P0AES6+P0AES4); assay: Poison activity at Escherichia coli DNA gyrase assessed as increase in linear DNA generation at 10 uM using supercoiled pBR322 DNA incubated for 10 mins by ethidium bromide staining based gel electrophoresis based DNA cleavage assay relative to untreated control; format: protein-complex assay
Homo sapiens [2] = organism: Homo sapiens; assay: Inhibition of human topoisomerase 2 assessed as reduction in decatenatation of kinetoplast DNA at 200 uM incubated for 15 mins by ethidium bromide staining based gel electrophoresis method
DNA gyrase = DNA gyrase (Escherichia coli, UniProt P0AES4+P0AES6); assay: Inhibition of Escherichia coli DNA gyrase subunit GyrA/GyrB supercoiling activity using relaxed pBR322 DNA incubated for 15 mins by ethidium bromide staining based gel electrophoresis method; format: protein-complex assay
[3] = molecular target: T1, DNA gyrase (Escherichia coli); assay: Inhibition of Escherichia coli DNA gyrase subunit GyrA/GyrB supercoiling activity at 10 uM using relaxed pBR322 DNA incubated for 15 mins by ethidium bromide staining based gel electrophoresis method; format: protein-complex assay
Homo sapiens [4] = organism: Homo sapiens; assay: Poison activity at human topoisomerase 2 assessed as increase in linear DNA generation at 5 to 10 uM incubated for 10 mins by ethidium bromide staining based gel electrophoresis based DNA cleavage assay relative to untreated control
[5] = Inhibition of human topoisomerase 2 assessed as reduction in decatenatation of kinetoplast DNA incubated for 15 mins by ethidium bromide staining based gel electrophoresis method

Row | Compound | fold change (FC) [1] | inhibition (Homo sapiens [2]) | pIC50 (DNA gyrase) | inhibition [3] [%] | Activity (Homo sapiens [4]) [%] | pIC50 [5]
1 | COc1c(N2CC[C@@H](CN)C2)c(F)cc2c1N(C1CC1)CC(C(=O)O)C2=O (stereo not given in full) | > 4 | inactive | 6.92 | > 96 |  | 
2 | COc1c(N2CC[C@@H](CN)C2)c(F)cc2c(=O)c(C(=O)O)cn(CCCCN)c12 | < 2 |  |  | 25.7 |  | 
3 | COc1c(N2CC[C@@H](CN)C2)c(F)cc2c(=O)c(C(=O)O)cn(Cc3ccccc3)c12 | < 2 |  |  | 37.7 |  | 
4 | COc1c(N2CC[C@@H](CN)C2)c(F)cc2c(=O)c(C(=O)O)cn(CCCc3ccccc3)c12 | < 2 |  |  | 27.1 |  | 
5 | COc1cc([C@@H]2c3cc4c(cc3[C@@H](O[C@@H]3O[C@@H]5CO[C@@H](C)O[C@H]5[C@H](O)[C@H]3O)[C@H]3COC(=O)[C@H]23)OCO4)cc(OC)c1O [ETOPOSIDE] |  |  |  |  | 400 to 800 | 4.22
6 | COc1c(N2CC[C@@H](CN)C2)c(F)cc2c(=O)c(C(=O)O)cn(CCCCCN)c12 | < 2 |  |  | 12.3 |  | 
7 | COc1c(N2CC[C@@H](CN)C2)c(F)cc2c(=O)c(C(=O)O)cn(CCc3ccccc3)c12 | < 2 |  |  | 11 |  | 
8 | CCN1CCN(c2c(F)cc3c(=O)c(C(=O)O)cn(CCCCCN)c3c2OC)CC1 | < 2 |  |  | < 5 |  | 
9 | COc1c(N2CC[C@@H](CN)C2)c(F)cc2c(=O)c(C(=O)O)cn(CCCN3C(=O)c4ccccc4C3=O)c12 | < 2 |  |  | < 5 |  | 
10 | COc1ccc(Cn2cc(C(=O)O)c(=O)c3cc(F)c(N4CC[C@@H](CN)C4)c(OC)c32)cc1 | < 2 |  |  | 25.2 |  | 
11 | COc1c(N2CC[C@@H](CN)C2)c(F)cc2c(=O)c(C(=O)O)cn(CCCCCN3C(=O)c4ccccc4C3=O)c12 | < 2 |  |  | 20.2 |  | 
12 | CCN1CCN(c2c(F)cc3c(=O)c(C(=O)O)cn(Cc4ccccc4)c3c2OC)CC1 | < 2 |  |  | 23.3 |  | 
13 | COc1c(N2CC[C@@H](CN)C2)c(F)cc2c(=O)c(C(=O)O)cn(CCCN)c12 | < 2 |  |  | < 5 |  | 
14 | COc1c(N2CC[C@@H](CN)C2)c(F)cc2c(=O)c(C(=O)O)cn(CCCCN3C(=O)c4ccccc4C3=O)c12 | < 2 |  |  | 20.4 |  | 
